Activity calls are given as the source filed them.
Legend:
KU812 cell line [1] = experiment: Antileukemic activity against human KU812 cell line assessed as inhibition of cell growth incubated for 48 hrs by MTT assay; assay type: functional, cell-based; conditions: KU812, 48 h
MV4-11 [2] = experiment: Antileukemic activity against human MV4-11 cell line assessed as inhibition of cell growth incubated for 48 hrs by MTT assay; assay type: functional, cell-based; conditions: MV4-11, 48 h
K562 [3] = experiment: Antileukemic activity against human K562 assessed as cell viability incubated for 48 hrs by MTT assay; assay type: functional, cell-based; conditions: K562, 48 h
KCL-22 [4] = experiment: Antileukemic activity against human KCL-22 assessed as cell viability incubated for 48 hrs by MTT assay; assay type: functional, cell-based; conditions: KCL-22, 48 h
MOLM-13 [5] = experiment: Antileukemic activity against human MOLM-13 assessed as cell viability incubated for 48 hrs by MTT assay; assay type: functional, cell-based; conditions: MOLM-13, 48 h
[6] = Cytotoxicity against human HS-27A assessed as cell viability incubated for 48 hrs by MTT assay; assay type: toxicity, cell-based; conditions: HS-27A cells
[7] = Cytotoxicity against Bone marrow cell (unknown origin) assessed as cell viability incubated for 48 hrs by MTT assay; assay type: toxicity, cell-based; conditions: bone marrow cells (unknown origin)
K562 [8] = experiment: Antiproliferative activity against human K562 cells measured after 72 hrs by MTT assay; assay type: functional, cell-based
KU812 cell line [9] = experiment: Antiproliferative activity against human KU812 cell line measured after 72 hrs by MTT assay; assay type: functional, cell-based
KCL-22 [10] = experiment: Antiproliferative activity against human KCL-22 cells measured after 72 hrs by MTT assay; assay type: functional, cell-based
MV4-11 [11] = experiment: Antiproliferative activity against human MV4-11 cells measured after 72 hrs by MTT assay; assay type: functional, cell-based
MOLM-13 [12] = experiment: Antiproliferative activity against human MOLM-13 cells measured after 72 hrs by MTT assay; assay type: functional, cell-based
[13] = Potency index, ratio of Pimozide EC50 to test compound EC50 for antileukemic activity against human KU812 cell line assessed as inhibition of cell growth incubated for 48 hrs by MTT assay; assay type: functional
[14] = Potency index, ratio of Pimozide EC50 to test compound EC50 for antileukemic activity against human K562 cells assessed as inhibition of cell growth incubated for 48 hrs by MTT assay; assay type: functional
[15] = Potency index, ratio of Pimozide EC50 to test compound EC50 for antileukemic activity against human KCL-22 cells assessed as inhibition of cell growth incubated for 48 hrs by MTT assay; assay type: functional
MV4-11 [16] = experiment: Potency index, ratio of Pimozide EC50 to test compound EC50 for antileukemic activity against human MV4-11 cells assessed as inhibition of cell growth incubated for 48 hrs by MTT assay; assay type: functional
[17] = Potency index, ratio of Pimozide EC50 to test compound EC50 for antileukemic activity against human MOLM-13 cells assessed as inhibition of cell growth incubated for 48 hrs by MTT assay; assay type: functional
[18] = biological target: T1, Signal transducer and activator of transcription 5A (Homo sapiens) (UniProt P42229); experiment: Inhibition of STAT5A phosphorylation in human KU812 cell line incubated for 24 hrs by Western blotting analysis; assay type: cell-based
T1 sequence (whole entry): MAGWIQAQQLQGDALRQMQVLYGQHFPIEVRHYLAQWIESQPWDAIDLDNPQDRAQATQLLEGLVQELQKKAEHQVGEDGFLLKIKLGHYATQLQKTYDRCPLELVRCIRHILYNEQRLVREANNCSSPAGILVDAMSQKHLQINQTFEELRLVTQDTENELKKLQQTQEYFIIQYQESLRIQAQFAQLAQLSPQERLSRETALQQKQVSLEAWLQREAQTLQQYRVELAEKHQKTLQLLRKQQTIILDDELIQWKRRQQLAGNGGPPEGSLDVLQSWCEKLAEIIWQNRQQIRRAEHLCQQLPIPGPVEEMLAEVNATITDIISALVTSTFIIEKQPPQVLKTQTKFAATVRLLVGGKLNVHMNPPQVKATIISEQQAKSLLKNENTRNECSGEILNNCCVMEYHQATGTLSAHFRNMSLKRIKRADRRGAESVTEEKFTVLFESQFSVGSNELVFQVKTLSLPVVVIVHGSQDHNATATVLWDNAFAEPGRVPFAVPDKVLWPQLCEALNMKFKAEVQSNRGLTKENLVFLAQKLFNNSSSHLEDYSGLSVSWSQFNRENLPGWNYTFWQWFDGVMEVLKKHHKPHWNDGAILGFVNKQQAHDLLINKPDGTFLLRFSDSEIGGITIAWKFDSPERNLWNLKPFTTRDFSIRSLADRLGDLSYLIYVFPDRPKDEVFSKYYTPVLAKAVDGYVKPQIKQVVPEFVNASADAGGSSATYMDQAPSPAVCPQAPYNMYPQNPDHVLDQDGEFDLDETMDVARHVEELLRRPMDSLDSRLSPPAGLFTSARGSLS

[19] = biological target: T2, Signal transducer and activator of transcription 5B (Homo sapiens) (UniProt P51692); experiment: Inhibition of STAT5B phosphorylation in human KU812 cell line incubated for 24 hrs by Western blotting analysis; assay type: cell-based
T2 sequence (whole entry): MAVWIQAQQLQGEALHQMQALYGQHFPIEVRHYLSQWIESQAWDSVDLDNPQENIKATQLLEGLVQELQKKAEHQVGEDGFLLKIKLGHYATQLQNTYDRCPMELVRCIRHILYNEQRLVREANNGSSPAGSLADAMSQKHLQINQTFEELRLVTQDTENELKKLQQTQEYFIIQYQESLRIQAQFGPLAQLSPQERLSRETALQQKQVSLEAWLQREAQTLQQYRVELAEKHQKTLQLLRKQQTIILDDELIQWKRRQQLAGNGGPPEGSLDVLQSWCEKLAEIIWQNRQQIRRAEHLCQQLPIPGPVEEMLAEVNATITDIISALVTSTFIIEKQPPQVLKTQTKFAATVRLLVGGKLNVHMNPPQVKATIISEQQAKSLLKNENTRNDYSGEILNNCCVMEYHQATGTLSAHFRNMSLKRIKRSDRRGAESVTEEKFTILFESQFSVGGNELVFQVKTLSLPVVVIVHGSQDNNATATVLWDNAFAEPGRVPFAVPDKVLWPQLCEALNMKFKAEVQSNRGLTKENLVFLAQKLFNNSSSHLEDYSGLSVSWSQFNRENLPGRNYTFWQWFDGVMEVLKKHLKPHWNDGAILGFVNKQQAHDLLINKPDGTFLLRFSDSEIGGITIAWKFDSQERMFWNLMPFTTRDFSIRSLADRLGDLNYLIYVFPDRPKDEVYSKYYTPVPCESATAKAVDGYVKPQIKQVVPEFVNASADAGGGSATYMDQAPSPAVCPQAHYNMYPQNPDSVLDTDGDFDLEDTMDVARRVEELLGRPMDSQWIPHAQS

[20] = biological target: T1, Signal transducer and activator of transcription 5A (Homo sapiens); experiment: Inhibition of STAT5A phosphorylation in human MV4-11 cells incubated for 24 hrs by Western blotting analysis; assay type: cell-based
[21] = biological target: T2, Signal transducer and activator of transcription 5B (Homo sapiens); experiment: Inhibition of STAT5B phosphorylation in human MV4-11 cells incubated for 24 hrs by Western blotting analysis; assay type: cell-based
MV4-11 [22] = experiment: Downregulation of STAT5B expression in human MV4-11 cells by Western blot analysis; assay type: functional, cell-based
KU812 [23] = experiment: Downregulation of STAT5B expression in human KU812 cell line by Western blot analysis; assay type: functional, cell-based
MV4-11 [24] = experiment: Downregulation of STAT5A expression in human MV4-11 cells by Western blot analysis; assay type: functional, cell-based
KU812 [25] = experiment: Downregulation of STAT5A expression in human KU812 cell line by Western blot analysis; assay type: functional, cell-based
BaF3 = experiment: Downregulation of STAT5B N642H mutant expression in mouse BaF3 cells incubated for 24 hrs by Western blot analysis; assay type: functional, cell-based; conditions: dose <= 5.0 µM
K562-IMA[r] [26] = experiment: Antiproliferative activity against human Imatinib-resistant K562 cells assessed as inhibition of cell growth at 100 nM measured after 72 hrs by MTT assay; assay type: functional, cell-based
[27] = biological target: T1, Signal transducer and activator of transcription 5A (Homo sapiens); experiment: Inhibition of STAT5A phosphorylation in human Imatinib-resistant K562 cells up to 5 uM incubated for 24 hrs by Western blotting analysis; assay type: cell-based
[28] = biological target: T2, Signal transducer and activator of transcription 5B (Homo sapiens); experiment: Inhibition of STAT5B phosphorylation in human Imatinib-resistant K562 cells up to 5 uM incubated for 24 hrs by Western blotting analysis; assay type: cell-based
K562-IMA[r] [29] = experiment: Downregulation of STAT5A expression in human Imatinib-resistant K562 cells by Western blot analysis; assay type: functional, cell-based
K562-IMA[r] [30] = experiment: Downregulation of STAT5B expression in human Imatinib-resistant K562 cells by Western blot analysis; assay type: functional, cell-based
KU812 cell line [31] = experiment: Antileukemic activity against human KU812 cell line co-cultured with human HS-27A in presence of Imatinib; assay type: functional, cell-based
MV4-11 [32] = experiment: Antileukemic activity against human MV4-11 cells co-cultured with human HS-27A in presence of Imatinib; assay type: functional, cell-based
KU812 cell line [33] = experiment: Antileukemic activity against human KU812 cell line co-cultured with human HS-27A in presence of Ara-c; assay type: functional, cell-based
MV4-11 [34] = experiment: Antileukemic activity against human MV4-11 cells co-cultured with human HS-27A in presence of Ara-c; assay type: functional, cell-based

CC1(C)CCN(CCOc2ccc3[nH]ccc3c2)c2cccc(-c3cnc(N)nc3)c21
300 nM: EC50 (MV4-11 [2]) | EC50 (MOLM-13 [5])
800 nM: EC50 (K562 [3])
44100 nM: EC50 at 48 h [6]
active: Activity (K562 [8]) | Activity (KU812 cell line [9]) | Activity (KCL-22 [10]) | Activity (MV4-11 [11]) | Activity (MOLM-13 [12]) | inhibition [18] | inhibition [19] | inhibition [20] | inhibition [21] | Activity (MV4-11 [22]) | Activity (KU812 [23]) | Activity (BaF3) Dose-dependent-effect | Activity (K562-IMA[r] [26]) | inhibition [27] | inhibition [28] | Activity (K562-IMA[r] [29]) | Activity (K562-IMA[r] [30]) | Activity (KU812 cell line [31]) | Activity (MV4-11 [32]) | Activity (KU812 cell line [33]) | Activity (MV4-11 [34])
600 nM: EC50 (KU812 cell line [1])
inactive: Activity (MV4-11 [24]) | Activity (KU812 [25])
5: Ratio EC50 [13] | Ratio EC50 [14] | Ratio EC50 [15] | Ratio EC50 (MV4-11 [16]) | Ratio EC50 [17]
500 nM: EC50 (KCL-22 [4])
12000 nM: EC50 at 48 h [7]

From ChEMBL document CHEMBL6121010, “Novel antileukemic compound with sub-micromolar potency against STAT5 addicted myeloid leukemia cells” (Eur J Med Chem, 2025)
